Data on 26 compounds can be found in patent US9725448B2, “Neprilysin inhibitors” (THERAVANCE BIOPHARMA R&D IP, LLC, priority 2011, dated 2017).

The assay has as its target T1, human NEP (Homo sapiens, UniProt P08473).
T1 construct: purchased R&D Systems, Minneapolis, Minn; 1182-ZN
Nature of the assay: In vitro enzyme inhibition assay at human NEP (fluorogenic peptide substrate). Particulars: pKi values at human NEP (recombinant), given as ranges. It is filed as biochemical. The protocol: The inhibitory activities of compounds at human and rat neprilysin (EC 3.4.24.11; NEP) and human angiotensin converting enzyme (ACE) were determined using in vitro assays as described below.
Recombinant human NEP and recombinant human ACE were obtained commercially (R&D Systems, Minneapolis, Minn., catalog numbers 1182-ZN and 929-ZN, respectively). The fluorogenic peptide substrate Mca-D-Arg-Arg-Leu-Dap-(Dnp)-OH (Medeiros et al. (1997) Braz. J. Med. Biol. Res. 30:1157-62; Anaspec, San Jose, Calif.) and Abz-Phe-Arg-Lys(Dnp)-Pro-OH (Araujo et al. (2000) Biochemistry 39:8519-8525; Bachem, Torrance, Calif.) were used in the NEP and ACE assays respectively.
The assays were performed in 384-well white opaque plates at 37° C. using the fluorogenic peptide substrates at a concentration of 10 μM in Assay Buffer (NEP: 50 mM HEPES, pH 7.5, 100 mM NaCl, 0.01% polyethylene glycol sorbitan monolaurate (Tween-20), […]; ACE: 50 mM HEPES, pH 7.5, 100 mM NaCl, 0.01% Tween-20, 1 μM ZnSO4).
Test compounds were assayed over the range of concentrations from 10 μM to 20 pM. Test compounds were added to the enzymes and incubated for 30 minute at 37° C. prior to initiating the reaction by the addition of substrate. Reactions were terminated after 20 minutes of incubation at 37° C. by the addition of glacial acetic acid to a final concentration of 3.6% (v/v).
Plates were read on a fluorometer with excitation and emission wavelengths set to 320 nm and 405 nm, respectively. Inhibition constants were obtained by nonlinear regression of the data using the equation (GraphPad Software, Inc., San Diego, Calif.): ν=ν0/[1+(I/K′)] where ν is the reaction rate, ν0 is the uninhibited reaction rate, I is the inhibitor concentration and K′ is the apparent inhibition constant.
Compounds of the invention were tested in this assay and found to have pKi values at human NEP as follows.

T1 sequence (P08473 52-750 limits assumed): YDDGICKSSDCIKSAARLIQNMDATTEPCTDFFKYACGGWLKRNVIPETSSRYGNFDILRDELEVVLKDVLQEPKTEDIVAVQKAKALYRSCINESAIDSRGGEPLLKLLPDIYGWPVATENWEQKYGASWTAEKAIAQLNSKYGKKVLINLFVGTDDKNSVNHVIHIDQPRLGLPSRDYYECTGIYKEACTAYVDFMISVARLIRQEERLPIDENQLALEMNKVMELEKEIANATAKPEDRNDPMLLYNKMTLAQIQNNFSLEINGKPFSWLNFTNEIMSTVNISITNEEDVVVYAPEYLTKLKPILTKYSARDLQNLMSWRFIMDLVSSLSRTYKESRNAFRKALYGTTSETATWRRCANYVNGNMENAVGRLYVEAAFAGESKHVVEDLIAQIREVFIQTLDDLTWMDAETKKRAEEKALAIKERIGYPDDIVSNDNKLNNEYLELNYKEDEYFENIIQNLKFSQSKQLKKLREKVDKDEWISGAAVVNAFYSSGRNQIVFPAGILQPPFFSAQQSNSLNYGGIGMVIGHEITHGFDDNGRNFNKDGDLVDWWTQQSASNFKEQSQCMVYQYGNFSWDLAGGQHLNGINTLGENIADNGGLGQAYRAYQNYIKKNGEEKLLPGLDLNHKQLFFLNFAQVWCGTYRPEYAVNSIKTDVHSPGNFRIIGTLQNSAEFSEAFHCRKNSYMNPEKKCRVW

Take `C[C@@](O)(CN(Cc1ccc(-c2cccc(Cl)c2)cc1)NC(=O)c1cc(-c2cnccn2)n[nH]1)C(=O)O` [Example 7-8, (R)-3-[N-(3′-Chlorobiphenyl-4-ylmethyl)-N′-(5-pyrazin-2-yl-2H-pyrazole-3-carbonyl)-hydrazino]-2-hydroxy-2-methyl-propionic acid]: the inhibitory constant (Ki) is 12.6 to 100 nM.
The value for `CN(C)C(=O)c1cc(C(=O)NN(Cc2ccc(-c3cccc(Cl)c3)cc2)C[C@@](C)(O)C(=O)O)[nH]n1` [Example 7-9, (R)-3-[N-(3′-Chlorobiphenyl-4-ylmethyl)-N′-(5-dimethylcarbamoyl-2H-pyrazole-3-carbonyl)-hydrazino]-2-hydroxy-2-methyl-propionic acid] was 12.6 to 100 nM.
The value for `C[C@@](O)(CN(Cc1ccc(-c2cccc(Cl)c2)cc1)NC(=O)c1cc(C(=O)O)n[nH]1)C(=O)O` [Example 7-10, 5-[N′—((R)-2-Carboxy-2-hydroxy-propyl)-N′-(3′-chlorobiphenyl-4-ylmethyl)-hydrazinocarbonyl]-1H-pyrazole-3-carboxylic acid] was no more than 1 nM.
The value for `C[C@@](O)(CN(Cc1ccc(-c2cccc(Cl)c2)cc1)NC(=O)c1cc(O)no1)C(=O)O` [Example 7-11, (R)-3-[N-(3′-Chlorobiphenyl-4-ylmethyl)-N′-(3-hydroxy-isoxazole-5-carbonyl)-hydrazino]-2-hydroxy-2-methyl-propionic acid] was no more than 1 nM; that for `Cc1ccc(Cl)cc1-c1ccc(CN(C[C@@](C)(O)C(=O)O)NC(=O)c2cc(O)no2)cc1` [Example 7-12, (R)-3-[N-(5′-Chloro-2′-methyl-biphenyl-4-ylmethyl)-N′-(3-hydroxy-isoxazole-5-carbonyl)-hydrazino]-2-hydroxy-2-methyl-propionic acid] was no more than 1 nM.
Take `C[C@@](O)(CN(Cc1ccc(-c2cc(Cl)cc(Cl)c2)cc1)NC(=O)c1cc(O)no1)C(=O)O` [Example 7-13, (R)-3-[N-(3′,5′-Dichlorobiphenyl-4-ylmethyl)-N′-(3-hydroxy-isoxazole-5-carbonyl)-hydrazino]-2-hydroxy-2-methyl-propionic acid]: the Ki is 12.6 to 100 nM.
The value for `COc1ccccc1-c1ccc(CN(C[C@@](C)(O)C(=O)O)NC(=O)c2cc(O)no2)cc1` [Example 7-14, (R)-2-Hydroxy-3-[N′-(3-hydroxy-isoxazole-5-carbonyl)-N-(2′-methoxy-biphenyl-4-ylmethyl)-hydrazino]-2-methyl-propionic acid] was 1.26 to 10 nM; that for `C[C@@](O)(CN(Cc1ccc(-c2ccccc2Cl)cc1)NC(=O)c1cc(O)no1)C(=O)O` [Example 7-15, (R)-3-[N-(2′-Chlorobiphenyl-4-ylmethyl)-N′-(3-hydroxy-isoxazole-5-carbonyl)-hydrazino]-2-hydroxy-2-methyl-propionic acid] was 12.6 to 100 nM; that for `C[C@@](O)(CN(Cc1ccc(-c2ccccc2O)cc1)NC(=O)c1cc(O)no1)C(=O)O` [Example 7-16, (R)-2-Hydroxy-3-[N-(2′-hydroxy-biphenyl-4-ylmethyl)-N′-(3-hydroxy-isoxazole-5-carbonyl)-hydrazino]-2-methyl-propionic acid] was 1.26 to 10 nM.
The value for `C[C@@](O)(CN(Cc1ccc(-c2ccccc2F)cc1)NC(=O)c1cc(O)no1)C(=O)O` [Example 7-17, (R)-3-[N-(2′-Fluorobiphenyl-4-ylmethyl)-N′-(3-hydroxy-isoxazole-5-carbonyl)-hydrazino]-2-hydroxy-2-methyl-propionic acid] was 1.26 to 10 nM; that for `C[C@@](O)(CN(Cc1ccc(-c2cc(F)ccc2F)cc1)NC(=O)c1cc(O)no1)C(=O)O` [Example 7-18, (R)-3-[N-(2′,5′-Difluorobiphenyl-4-ylmethyl)-N′-(3-hydroxy-isoxazole-5-carbonyl)-hydrazino]-2-hydroxy-2-methyl-propionic acid] was 1.26 to 10 nM.
The value for `C[C@@](O)(CN(Cc1ccc(-c2cc(Cl)ccc2Cl)cc1)NC(=O)c1cc(O)no1)C(=O)O` [Example 7-19, (R)-3-[N-(2′,5′-Dichlorobiphenyl-4-ylmethyl)-N′-(3-hydroxy-isoxazole-5-carbonyl)-hydrazino]-2-hydroxy-2-methyl-propionic acid] was no more than 1 nM.
On to `C[C@@](O)(CN(Cc1ccc(-c2cccc(F)c2)cc1)NC(=O)c1cc(O)no1)C(=O)O` [Example 7-20, (R)-3-[N-(3′-Fluorobiphenyl-4-ylmethyl)-N′-(3-hydroxy-isoxazole-5-carbonyl)-hydrazino]-2-hydroxy-2-methyl-propionic acid], for which the Ki is 1.26 to 10 nM.
In the case of `C[C@@](O)(CN(Cc1ccc(-c2cccc(Cl)c2)cc1)NC(=O)c1c[nH]c(=O)o1)C(=O)O` [Example 7-21, (R)-3-[N-(3′-Chlorobiphenyl-4-ylmethyl)-N′-(2-oxo-2,3-dihydro-oxazole-5-carbonyl)-hydrazino]-2-hydroxy-2-methyl-propionic acid], the Ki was 1.26 to 10 nM.
Take `C[C@@](O)(CN(Cc1ccc(-c2cc(Cl)ccc2F)cc1)NC(=O)c1c[nH]c(=O)o1)C(=O)O` [Example 7-22, (R)-3-[N-(5′-Chloro-2′-fluorobiphenyl-4-ylmethyl)-N′-(2-oxo-2,3-dihydro-oxazole-5-carbonyl)-hydrazino]-2-hydroxy-2-methyl-propionic acid]: the inhibitory constant (Ki) was 1.26 to 10 nM.
For `C[C@@](O)(CN(Cc1ccc(-c2cc(Cl)ccc2F)cc1)NC(=O)c1nnn[nH]1)C(=O)O` [Example 7-23, (R)-3-[N-(5′-Chloro-2′-fluorobiphenyl-4-ylmethyl)-N′-(1H-tetrazole-5-carbonyl)-hydrazino]-2-hydroxy-2-methyl-propionic acid] the value was 1.26 to 10 nM.
The value for `Cc1ccc(Cl)cc1-c1ccc(CN(C[C@@](C)(O)C(=O)O)NC(=O)c2nnn[nH]2)cc1` [Example 7-24, (R)-3-[N-(5′-Chloro-2′-methyl-biphenyl-4-ylmethyl)-N′-(1H-tetrazole-5-carbonyl)-hydrazino]-2-hydroxy-2-methyl-propionic acid] was 1.26 to 10 nM.
The value for `C[C@@](O)(CN(Cc1ccc(-c2cccc(Cl)c2)cc1)NC(=O)c1cnc(O)nc1)C(=O)O` [Example 7-25, (R)-3-[N-(3′-Chlorobiphenyl-4-ylmethyl)-N′-(2-hydroxy-pyrimidine-5-carbonyl)-hydrazino]-2-hydroxy-2-methyl-propionic acid] was 1.26 to 10 nM; that for `C[C@@](O)(CN(Cc1ccc(-c2cccc(Cl)c2)cc1)NC(=O)c1cc(C(=O)O)ncn1)C(=O)O` [Example 7-26, 6-[N′—((R)-2-Carboxy-2-hydroxy-propyl)-N′-(3′-chlorobiphenyl-4-ylmethyl)-hydrazinocarbonyl]-pyrimidine-4-carboxylic acid] was no more than 1 nM.
Take `CC(C)(C[C@@H](Cc1ccc(-c2ccccc2)cc1)NC(=O)c1cc(O)no1)C(=O)O` [Example 8A, (R)-5-Biphenyl-4-yl-4-[(3-hydroxy-isoxazole-5-carbonyl)-amino]-2,2-dimethyl-pentanoic acid]: the Ki was no more than 1 nM.
As for `CC(C)(C[C@@H](Cc1ccc(-c2ccccc2)cc1)NC(=O)c1cnn[nH]1)C(=O)O` [Example 9-1, (R)-5-Biphenyl-4-yl-2,2-dimethyl-4-[(3H-[1,2,3]triazole-4-carbonyl)-amino]-pentanoic acid], the Ki was 1.26 to 10 nM.
For `CC(C)(C[C@@H](Cc1ccc(-c2ccccc2)cc1)NC(=O)c1nc(O)n[nH]1)C(=O)O` [Example 9-3, (R)-5-Biphenyl-4-yl-4-[(5-hydroxy-2H-[1,2,4]triazole-3-carbonyl)-amino]-2,2-dimethyl-pentanoic acid] the value was 1.26 to 10 nM; for `CC(C)(C[C@@H](Cc1ccc(-c2ccccc2)cc1)NC(=O)c1ncn[nH]1)C(=O)O` [Example 9-4, (R)-5-Biphenyl-4-yl-2,2-dimethyl-4-[(2H-[1,2,4]triazole-3-carbonyl)-amino]-pentanoic acid], 12.6 to 100 nM.
For the compound `CC(C)(C[C@@H](Cc1ccc(-c2ccccc2)cc1)NC(=O)c1cnc(O)nc1)C(=O)O` [Example 9-5, (R)-5-Biphenyl-4-yl-4-[(2-hydroxy-pyrimidine-5-carbonyl)-amino]-2,2-dimethyl-pentanoic acid], the inhibition constant Ki was 1.26 to 10 nM.
Take `CC(C)(C[C@@H](Cc1ccc(-c2ccccc2)cc1)NC(=O)c1cc(C(=O)O)n[nH]1)C(=O)O` [Example 9-6, 5-((R)-1-Biphenyl-4-ylmethyl-3-carboxy-3-methyl-butylcarbamoyl)-1H-pyrazole-3-carboxylic acid]: the inhibition constant (Ki) is no more than 1 nM.
As for `CC(C)(C[C@@H](Cc1ccc(-c2ccccc2)cc1)NC(=O)c1cc(C(=O)N2CCOCC2)n[nH]1)C(=O)O` [Example 9-8, (R)-5-Biphenyl-4-yl-2,2-dimethyl-4-{[5-(morpholine-4-carbonyl)-2H-pyrazole-3-carbonyl]-amino}-pentanoic acid], the inhibition constant Ki was 12.6 to 100 nM.

What is called Ki is the equilibrium dissociation constant of an inhibitor or competing ligand from its target.
